This test has as its target human FXR (NR1H4) (Homo sapiens (Human), UniProt Q96RI1). Kind of test: Human FXR (NR1H4) Assay (Gal4 promoter driven luciferase reporter, Indigo Bioscience kit).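 On Efficacy (%): 100% equals the efficacy of CDCA; efficacy normalized to CDCA set as 100%.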 The note with it: for EC50: Human FXR (NR1H4) Assay, potency ranges; for Emax: read-out: Efficacy (%). Type of test: cell-based. The source says: ASSAYS Human FXR (NR1H4) Assay
Determination of a ligand mediated Gal4 promoter driven transactivation to quantify ligand binding mediated activation of FXR. FXR Reporter Assay kit purchased from Indigo Bioscience (Catalogue number: IB00601) to determine the potency and efficacy of compound developed by Enanta that can induce FXR activation. The principle application of this reporter assay system is to quantify functional activity of human FXR. The assay utilizes non-human mammalian cells, CHO (Chinese hamster ovary) cells engineered to express human NR1H4 protein (referred to as FXR). Reporter cells also incorporate the cDNA encoding beetle luciferase which catalyzes the substrates and yields photon emission. Luminescence intensity of the reaction is quantified using a plate-reading luminometer, Envision. Reporter Cells include the luciferase reporter gene functionally linked to an FXR responsive promoter. Thus, quantifying changes in luciferase expression in the treated reporter cells provides a sensitive surrogate measure of the changes in FXR activity. […] The assay is according to the manufacturer's instructions. In brief, the assay was performed in white, 96 well plates using final volume of 100 uL containing cells with different doses of compounds. Retrieve Reporter Cells from −80° C. storage. Perform a rapid thaw of the frozen cells by transferring a 10 ml volume of 37° C. cell recovery medium into the tube of frozen cells. Recap the tube of Reporter Cells and immediately place it in a 37° C. water bath for 5-10 minutes. Retrieve the tube of Reporter Cell Suspension from the water bath. Sanitize the outside surface of the tube with a 70% alcohol swab, and then transfer it into the cell culture hood. Dispense 90 μl of cell suspension into each well of the 96-well Assay Plate. Transfer the plate into 37° C. incubator, allowing the cells adherent to the bottom of the well. Dilute compounds in Dilution Plate (DP), and administrate to cells at Assay Plate (AP). DMSO content of the samples was kept at 0.2%. Cells were incubated for additional 22 hours before luciferase activities were measured. Thirty minutes before intending to quantify FXR activity, remove Detection Substrate and Detection Buffer from the refrigerator and place them in a low-light area so that they may equilibrate to room temperature. Remove the plate's lid and discard all media contents by ejecting it into an appropriate waste container. Gently tap the inverted plate onto a clean absorbent paper towel to remove residual droplets. Cells will remain tightly adhered to well bottoms. Add 100 μl of luciferase detection reagent to each well of the assay plate. Allow the assay plate to rest at room temperature for at least 5 minutes following the addition of LDR. Set the instrument (Envision) to perform a single 5 second “plate shake” prior to reading the first assay well. Read time may be 0.5 second (500 mSec) per well.

Sequence of human FXR (NR1H4) (Q96RI1 whole entry, the tested form may be a part): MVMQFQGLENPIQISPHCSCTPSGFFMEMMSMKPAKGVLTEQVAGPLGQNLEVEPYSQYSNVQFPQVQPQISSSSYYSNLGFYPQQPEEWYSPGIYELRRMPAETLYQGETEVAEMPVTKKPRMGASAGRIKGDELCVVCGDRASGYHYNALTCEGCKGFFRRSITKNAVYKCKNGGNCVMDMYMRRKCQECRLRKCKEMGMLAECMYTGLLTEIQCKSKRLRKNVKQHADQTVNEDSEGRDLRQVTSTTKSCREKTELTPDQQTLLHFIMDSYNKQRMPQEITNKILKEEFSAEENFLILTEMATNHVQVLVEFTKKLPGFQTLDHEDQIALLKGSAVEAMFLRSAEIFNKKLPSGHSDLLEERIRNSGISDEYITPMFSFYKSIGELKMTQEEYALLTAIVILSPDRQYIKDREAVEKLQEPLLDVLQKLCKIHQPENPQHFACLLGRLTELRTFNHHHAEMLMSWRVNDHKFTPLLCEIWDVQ

Take `CC[C@H]1[C@@H](O)[C@@H]2[C@H](CC[C@]3(C)[C@@H]([C@H](C)CCOC(=O)N4CCc5sccc5C4)CC[C@@H]23)[C@@]2(C)CC[C@@H](O)C[C@@H]12` [Example 173]: the EC50 was in the range of 100 to 1000 nM and the Emax was 209%.
Regarding `CC[C@H]1[C@@H](O)[C@@H]2[C@H](CC[C@]3(C)[C@@H]([C@H](C)COC(=O)NC4CC4)CC[C@@H]23)[C@@]2(C)CC[C@@H](O)C[C@@H]12` [Example 198], the EC50 lay in the range of 1000 to 10000 nM and the Emax was 139%.
Turning to `CC[C@H]1[C@@H](O)[C@@H]2[C@H](CC[C@]3(C)[C@@H]([C@H](C)CCOC(=O)NS(=O)(=O)C4CCCCC4)CC[C@@H]23)[C@@]2(C)CC[C@@H](O)C[C@@H]12` [Example 104-a], the EC50 is under 100 nM and the Emax was found to be 242%.
The like results for `CC[C@H]1[C@@H](O)[C@@H]2[C@H](CC[C@]3(C)[C@@H]([C@H](C)CCOC(=O)NS(=O)(=O)CC(C)(C)C)CC[C@@H]23)[C@@]2(C)CC[C@@H](O)C[C@@H]12` [Example 103] were, in that order, under 100 nM and 294%.
As for `CC[C@H]1[C@@H](O)[C@@H]2[C@H](CC[C@]3(C)[C@@H]([C@H](C)CCOC(=O)Nc4ccc(C(C)(C)C)cc4)CC[C@@H]23)[C@@]2(C)CC[C@@H](O)C[C@@H]12` [Example 166], the EC50 is 1000 to 10000 nM and the Emax was determined as 30%.
For the compound `CC[C@H]1[C@@H](O)[C@@H]2[C@H](CC[C@]3(C)[C@@H]([C@H](C)CCOC(=O)NS(=O)(=O)c4ccc(C(C)(C)CO)cc4)CC[C@@H]23)[C@@]2(C)CC[C@@H](O)C[C@@H]12` [Example 70], the EC50 is under 100 nM and the Emax turned out to be 333%.
Taken in the same sequence, the figures for `CC[C@H]1[C@@H](O)[C@@H]2[C@H](CC[C@]3(C)[C@@H]([C@H](C)CCOC(=O)Nc4ccccc4)CC[C@@H]23)[C@@]2(C)CC[C@@H](O)C[C@@H]12` [Example 191] were 1000 to 10000 nM and 330%.
As to `CC[C@H]1[C@@H](O)[C@@H]2[C@H](CC[C@]3(C)[C@@H]([C@H](C)COC(=O)NS(=O)(=O)c4ccc(-n5cnnn5)nc4)CC[C@@H]23)[C@@]2(C)CC[C@@H](O)C[C@@H]12` [Example 44-d], the 50% effective concentration (EC50) was in the range of 100 to 1000 nM and the Emax came out at 195%.
The like results for `CC[C@H]1[C@@H](O)[C@@H]2[C@H](CC[C@]3(C)[C@@H]([C@H](C)CCOC(=O)NS(=O)(=O)c4ccc(C(C)(C)C)s4)CC[C@@H]23)[C@@]2(C)CC[C@@H](O)C[C@@H]12` [Example 62] were, in that order, under 100 nM and 299%.
On to `CC[C@H]1[C@@H](O)[C@@H]2[C@H](CC[C@]3(C)[C@@H]([C@H](C)CCOC(=O)NS(=O)(=O)c4cnccn4)CC[C@@H]23)[C@@]2(C)CC[C@@H](O)C[C@@H]12` [Example 99], for which the 50% effective concentration (EC50) is 1000 to 10000 nM and the Emax was determined as 51%.
As to `CC[C@H]1[C@@H](O)[C@@H]2[C@H](CC[C@]3(C)[C@@H]([C@H](C)CCOC(=O)NS(=O)(=O)c4cccc(Cl)c4)CC[C@@H]23)[C@@]2(C)CC[C@@H](O)C[C@@H]12` [Example 65], the EC50 is under 100 nM and the Emax amounted to 322%.
As for `CC[C@H]1[C@@H](O)[C@@H]2[C@H](CC[C@]3(C)[C@@H]([C@H](C)COC(=O)NS(=O)(=O)c4ccc(N5CCCCC5)cc4)CC[C@@H]23)[C@@]2(C)CC[C@@H](O)C[C@@H]12` [Example 9], the EC50 is under 100 nM and the Emax turned out to be 208%.
For `CC[C@H]1[C@@H](O)[C@@H]2[C@H](CC[C@]3(C)[C@@H]([C@H](C)COC(=O)NS(=O)(=O)c4ccc(OC)cc4)CC[C@@H]23)[C@@]2(C)CC[C@@H](O)C[C@@H]12` [Example 44-k], the EC50 was under 100 nM and the Emax stood at 158%.
With `CC[C@H]1[C@@H](O)[C@@H]2[C@H](CC[C@]3(C)[C@@H]([C@H](C)CCOC(=O)NS(=O)(=O)c4cccc(OC(F)(F)F)c4)CC[C@@H]23)[C@@]2(C)CC[C@@H](O)C[C@@H]12` [Example 63], the EC50 was under 100 nM and the Emax stood at 396%.
With `CC[C@H]1[C@@H](O)[C@@H]2[C@H](CC[C@]3(C)[C@@H]([C@H](C)CCOC(=O)N(CCO)CCO)CC[C@@H]23)[C@@]2(C)CC[C@@H](O)C[C@@H]12` [Example 179], the EC50 lay in the range of 100 to 1000 nM and the Emax came to 333%.
The like results for `CC[C@H]1[C@@H](O)[C@@H]2[C@H](CC[C@]3(C)[C@@H]([C@H](C)CCOC(=O)NS(=O)(=O)c4cccc5ccccc45)CC[C@@H]23)[C@@]2(C)CC[C@@H](O)C[C@@H]12` [Example 81] were, in that order, under 100 nM and 372%.
For the compound `CC[C@H]1[C@@H](O)[C@@H]2[C@H](CC[C@]3(C)[C@@H]([C@H](C)CCOC(=O)N4CCCC4c4cccc(Cl)c4)CC[C@@H]23)[C@@]2(C)CC[C@@H](O)C[C@@H]12` (stereo partly drawn) [Example 184], the EC50 is 1000 to 10000 nM and the Emax was found to be 213%.
Taken in the same sequence, the figures for `CC[C@H]1[C@@H](O)[C@@H]2[C@H](CC[C@]3(C)[C@@H]([C@H](C)CCOC(=O)N4C[C@@H](C)O[C@@H](C)C4)CC[C@@H]23)[C@@]2(C)CC[C@@H](O)C[C@@H]12` [Example 182] were 100 to 1000 nM and 419%.
For `CC[C@H]1[C@@H](O)[C@@H]2[C@H](CC[C@]3(C)[C@@H]([C@H](C)CCOC(=O)NS(=O)(=O)C[C@]45CCC(CC4=O)C5(C)C)CC[C@@H]23)[C@@]2(C)CC[C@@H](O)C[C@@H]12` [Example 58], the EC50 was under 100 nM and the Emax is 366%.
`CC[C@H]1[C@@H](O)[C@@H]2[C@H](CC[C@]3(C)[C@@H]([C@H](C)COC(=O)NS(=O)(=O)c4ccc(-n5cccn5)nc4)CC[C@@H]23)[C@@]2(C)CC[C@@H](O)C[C@@H]12` [Example 16]: the EC50 was under 100 nM and the Emax was determined as 187%.
As for `CC[C@H]1[C@@H](O)[C@@H]2[C@H](CC[C@]3(C)[C@@H]([C@H](C)CCOC(=O)NS(=O)(=O)c4ccc(C(C)(C)C(=O)OC)cc4)CC[C@@H]23)[C@@]2(C)CC[C@@H](O)C[C@@H]12` [Example 55], the EC50 was under 100 nM and the Emax was determined as 258%.
On to `CC[C@H]1[C@@H](O)[C@@H]2[C@H](CC[C@]3(C)[C@@H]([C@H](C)CCOC(=O)N4CCCC4)CC[C@@H]23)[C@@]2(C)CC[C@@H](O)C[C@@H]12` [Example 147], for which the EC50 is under 100 nM and the Emax worked out at 228%.
With `CC[C@H]1[C@@H](O)[C@@H]2[C@H](CC[C@]3(C)[C@@H]([C@H](C)CCOC(=O)NS(=O)(=O)c4ncccn4)CC[C@@H]23)[C@@]2(C)CC[C@@H](O)C[C@@H]12` [Example 104-d], the EC50 was 1000 to 10000 nM and the Emax is 35%.
As to `CC[C@H]1[C@@H](O)[C@@H]2[C@H](CC[C@]3(C)[C@@H]([C@H](C)CCCOC(=O)NS(=O)(=O)C4CCCC4)CC[C@@H]23)[C@@]2(C)CC[C@@H](O)C[C@@H]12` [Example 120], the EC50 fell in the range of 100 to 1000 nM and the Emax worked out at 485%.

As usually defined, the EC50 is the midpoint of the concentration-response curve. A low value points to an effect from little substance.
